The text below walks through data of US8026221B2, “Method, composition and kit for antigenic binding of norwalk-like viruses” (Children's Hospital Medical Center, priority 2002, dated 2011).

For this assay, the system named is NV. In words: Binding of synthetic histo-blood antigen with NLV after glycosidase digestion. The arrangement: species or system Norwalk Virus. The note with it: after digestion with α-N-acetylgalactosaminidase. From the text: Thus, the corresponding NLV could not be bound.

For the substance “GalNAc-α1→3 (Fuc-α1→2) Gal β-O-space) nBSA [A trisaccharide-BSA]”, the “Binding with NLV after removal of the antigenic determinant sugar epitope” value is recorded as “losses binding”.
